These results are taken from PubChem BioAssay (NCI).

Holding throughout (assay): growth of human tumour cells (NCI), 48 h
Test [1] concerns MALME-3M melanoma.
Test [2] deals with HOP-62 NSCLC.
The subject of test [3] is SNB-75 CNS.
Test [4] deals with HL-60(TB) leukemia.
The test system of test [5] is DU-145 prostate.
In test [6] the test system is KM12 colon.
Test [7] concerns SN12C renal.
Test [8] concerns ACHN renal.
Test [9] has as its system HCT-15 colon.
The test system of test [10] is RXF 393 renal.

Each structure is given as a SMILES string. Where “and” joins values, the source holds several entries; their conditions need not be identical. Equal entries are not always repeated.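 Cultured in 96-well plates, cells were exposed to test compound for 48 hours across five concentrations. Here, GI50 denotes the concentration required for 50% inhibition of growth. TGI: concentration producing complete growth inhibition.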 Some results are limits rather than exact numbers.

With `C=CC(=O)Nc1cccc(C)c1Nc1ncc2cc(-c3c(Cl)c(OC)cc(OC)c3Cl)ccc2n1`, the GI50 is 3.98 µM in test [1]; 8.86 µM in [2]; 2.57 µM in test [3]; 2.13 µM in test [4]; 3.63 µM in [5]; 4.11 µM in test [6]. The GI50 in test [7] is 5.87 µM; in test [8], 7.01 µM; in test [9], 4.21 µM; in [10], 1.3 µM. In addition, the TGI was 31.4 µM in [1]; 50 µM in test [2]; 44.9 µM in [3]; 15 µM in [4]; above 100 µM in [5]; 24.8 µM in test [6]. Also, the TGI in test [7] was above 100 µM; in test [8] it was above 100 µM; in test [9] it was above 100 µM; in test [10], 4.59 µM.
Regarding `CN(C)c1ccc(O)c2c1C[C@H]1C[C@H]3[C@H](N(C)C)C(=O)C(C(N)=O)=C(O)[C@@]3(O)C(=O)C1=C2O`, the GI50 is 7.51 µM in [1]; 4.01 µM in [2]; 4.88 µM in [3]; 7.44 µM in test [4]; 5.07 µM in test [5]; 6.29 µM in test [6]. The GI50 is 4.8 µM in test [7], 4.09 µM in [8], 4.02 µM in test [9] and 4.01 µM in test [10]. Further, the TGI in [1] is 33.3 µM; in test [2], 71.5 µM; in test [3] it was 68.7 µM; in test [4], 40.4 µM; in [5] it was 73.6 µM; in test [6], 27.4 µM. The TGI in test [7] is above 100 µM; in test [8], above 100 µM; in test [9], 94 µM; in test [10], 69.7 µM.
On to `Cc1ccc(S(=O)(=O)Nc2nc3ccccc3nc2Nc2ccc3nsnc3c2)cc1`, for which the GI50 in [1] is 2.18 µM and 1.34 µM; in test [2] it was 5.36 µM and 5.68 µM; in [3] it was 8.81 µM and 3.89 µM; in [4] it was 2.96 µM and 2.86 µM; in test [5] it was 5.04 µM and 4.45 µM; in test [6], 4.3 µM. Moreover, the GI50 is 3.1 µM and 3.04 µM in test [7]; 4.01 µM and 3.75 µM in test [8]; 3.61 µM and 3.84 µM in [9]; 6.92 µM and 7.73 µM in [10]. Besides, the TGI was 35.6 µM and > 100 µM in [2]; above 100 µM in [3]; 14 µM and > 30 µM in test [4]; above 100 µM in test [5]; above 100 µM in test [6]; 46.8 µM and > 100 µM in test [7]. Besides, the TGI in test [8] is above 100 µM; in test [9] it was above 100 µM; in test [10], 35.1 µM and > 100 µM.
Turning to `COC(=O)[C@@]1(O)C[C@H]2O[C@]1(C)n1c3ccccc3c3c4c(c5c6ccccc6n2c5c31)C(=O)NC4`, the GI50 in [1] is 0.186 µM; in [2], 0.169 µM; in test [3], 0.185 µM; in test [4] it was 0.868 µM; in test [5], 0.161 µM; in test [6], 0.0269 µM. The GI50 in test [7] is 0.074 µM; in test [8], 0.0368 µM; in test [9] it was 0.0706 µM; in test [10] it was 0.159 µM. In addition, the TGI in test [1] turned out to be 1.52 µM; in [2], 1.81 µM; in [3], 1.04 µM; in [5] it was 5.9 µM; in test [6], 1.07 µM; in [7], 2.15 µM. Also, the TGI came to 3.07 µM in test [8], 2.5 µM in test [9] and 1.49 µM in test [10].
For `O=C(/C=C/c1ccc(C(F)(F)F)cc1)c1ccc(Nc2nc(NCCO)nc(N3CCOCC3)n2)cc1`, the GI50 in test [1] is 2.91 µM; in [2] it was 2.22 µM; in test [3], 1.84 µM; in [4], 2.92 µM; in test [5] it was 2.19 µM; in [6] it was 1.8 µM. Further, the GI50 in test [7] is 2.22 µM; in test [8], 1.86 µM; in test [9], 1.89 µM; in test [10], 1.63 µM. Moreover, the TGI in test [1] is 10.2 µM; in test [2] it was 6.57 µM; in [3] it was 7.9 µM; in [4], 8.64 µM; in test [5] it was 4.58 µM; in [6] it was 3.3 µM. Also, the TGI in test [7] is 5.69 µM; in test [8] it was 3.86 µM; in [9] it was 4.82 µM; in test [10], 3.26 µM.
Take `N#CC1=C(N)Oc2c(sc3c(F)cccc23)C1c1ccc(F)cc1` (stereo not drawn): the GI50 in [1] is 0.602 µM; in test [2], 0.76 µM; in test [3] it was 0.338 µM; in test [4] it was 0.284 µM; in test [5], 1.79 µM; in test [6] it was 0.465 µM. The GI50 in [7] is 1.28 µM; in test [8], 0.752 µM; in test [9], 0.421 µM; in test [10] it was 1.07 µM. For the same compound, the TGI in test [1] amounted to 22.2 µM; in test [2] it was 19.2 µM; in [3] it was 14.9 µM; in test [4], 2.74 µM; in test [5], 12.9 µM; in test [6], 12.8 µM. In addition, the TGI in test [7] was 15.8 µM; in [8], 16.1 µM; in test [9], 12 µM; in [10], 6.31 µM.
For the compound `CS(=O)(=O)Nc1cc(-c2ccc3ncnc(Nc4ccc5c(cnn5Cc5ccccc5F)c4)c3c2)cnc1Cl`, the GI50 was 0.466 µM in test [1]; 0.457 µM in test [2]; 0.157 µM in test [3]; 1.02 µM in test [4]; 2 µM in [5]; 2.48 µM in test [6]. Moreover, the GI50 was 1.13 µM in test [7], 3.24 µM in [8], 3.28 µM in test [9] and 1.41 µM in test [10]. Besides, the TGI in [1] is 3 µM; in test [2], above 100 µM; in [3], 2.4 µM; in test [4], 6.02 µM; in test [5] it was above 38.2 µM; in [6], 8.1 µM. For the same compound, the TGI in test [7] was above 100 µM; in test [8], above 52.9 µM; in [9], 55 µM; in [10], 5.85 µM.
